# According to US11925629B2, “Heterocyclic inhibitors of ERK1 and ERK2 and their use in the treatment of cancer” (Asana Biosciences, LLC, priority 2015, dated 2024):
# Structures can show the parent of a compound that is named as a salt.
# What was measured:
# ERK1 = target: T1, ERK1 (Homo sapiens, UniProt P27361); assay: ERK1 HTRF (biochemical) assay; conditions: HTRF biochemical assay
# T1 construct: purchased Jubilant Biosys
# Experimental: (§1) ERK1 and ERK2 HTRF (Biochemical) Assays
# These assays employed a homogeneous time resolved fluorescence (HTRF) technique. […] The plate was incubated at room temperature for 60 min with shaking. […] The IC50 values (half maximal inhibitory concentration values) were subsequently determined using a sigmoidal dose-response curve (variable slope) in GraphPad Prism® 5 software.
# ERK2 = target: T2, ERK2 (Homo sapiens, UniProt P28482); assay: ERK2 HTRF (biochemical) assay; conditions: HTRF biochemical assay
# T2 construct: purchased Jubilant Biosys
# Experimental: as §1
# These assays employed a homogeneous time resolved fluorescence (HTRF) technique. The compounds were serially diluted by half-log with concentrations ranging from 0.0005 to 10 uM in the assay buffer (50 mM Tris pH=7.5, 1 mM EGTA, 2 mM DTT, 10 mM MgCl2, 0.100 Tween-20) and 20 uL of substrate-ATP mix [1 uM Biotin-LC-Myelin Basic Protein (MBP) derivatized Peptide (Anaspec)-24 uM ATP (Sigma)] was added to each well of the assay plate. Then 10 uL of enzyme mix [25 nM ERK1 or ERK2 (Jubilant Biosys) in assay buffer] was added to each well. The plate was incubated at room temperature for 60 min with shaking. The HTRF mix [625 nM LANCER Ultra Europium-anti-phospho-MBP (Perkin Elmer) and 2 nM Phycolink® Streptavidin-Allophycocyanin (SA-APC) (Prozyme) in HTRF buffer (50 mM Tris-HCl pH=7.5, 100 mM NaCl, 0.1% BSA, 0.05% Tween20, 0.5 mM EDTA)] was prepared and 75 uL of this mix was added to the HTRF plate. After incubation for 60 min at room temperature, 10 uL of the reaction mixture was transferred to the HTRF assay plate and incubated for 45 min at room temperature with shaking. Plate was read using Pherastar in HTRF mode (excitation 337 nm, emission 665 & 620 nm). The IC50 values (half maximal inhibitory concentration values) were subsequently determined using a sigmoidal dose-response curve (variable slope) in GraphPad Prism® 5 software.
# [1] = system: phosphorylation of RSK1(S380) (the downstream target of ERK1/2); assay: Phospho-RSK1(S380) ELISA assay in HT-29 cells; assay type: cell-based, human; conditions: Homo sapiens, HT-29, HT29 cells; read-out: Mechanistic Cell Assay RSK1 Phos HT29 IC50
# Procedure, shortened: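 IC50 values derive from a variable-slope sigmoidal fit of sandwich-ELISA signal (450 nm) for RSK1 Ser380 phosphorylation. The cells were B-RafV600E HT-29 colorectal line, exposed to serially diluted compound for 2 h after overnight seeding, then lysed at 4° C.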
# [2] = system: HT-29 (colorectal carcinoma, B-RafV600E) cells; assay: Cell proliferation (Alamar Blue) assay, HT-29; assay type: cell-based, human; conditions: Homo sapiens, HT-29, HT29 cells
# Procedure, shortened: (§2)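 A 72 h exposure to compound (3-fold series, typically 0.0005 to 10 uM) of cells seeded at 5000/well precedes a 1-3 h Alamar Blue (1×) incubation. Growth inhibition is quantified by fluorescence and fitted to give IC50.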
# [3] = system: HCT116 (colorectal carcinoma, K Ras G13D) cells; assay: Cell proliferation (Alamar Blue) assay, HCT116; assay type: cell-based, human; conditions: Homo sapiens, HCT-116, HCT116 cells
# Procedure, shortened: as §2
# T1 sequence (P27361 whole entry): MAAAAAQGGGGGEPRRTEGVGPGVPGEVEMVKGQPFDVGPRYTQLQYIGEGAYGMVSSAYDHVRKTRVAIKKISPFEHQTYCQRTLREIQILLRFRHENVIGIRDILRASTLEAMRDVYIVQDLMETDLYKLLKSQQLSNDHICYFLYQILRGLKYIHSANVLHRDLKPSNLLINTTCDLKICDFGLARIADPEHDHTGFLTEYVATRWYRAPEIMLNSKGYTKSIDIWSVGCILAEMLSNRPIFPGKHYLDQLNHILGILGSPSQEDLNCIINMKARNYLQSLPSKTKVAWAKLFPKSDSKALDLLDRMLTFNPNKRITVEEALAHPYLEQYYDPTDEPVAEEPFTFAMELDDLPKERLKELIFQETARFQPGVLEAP
# T2 sequence (P28482 whole entry): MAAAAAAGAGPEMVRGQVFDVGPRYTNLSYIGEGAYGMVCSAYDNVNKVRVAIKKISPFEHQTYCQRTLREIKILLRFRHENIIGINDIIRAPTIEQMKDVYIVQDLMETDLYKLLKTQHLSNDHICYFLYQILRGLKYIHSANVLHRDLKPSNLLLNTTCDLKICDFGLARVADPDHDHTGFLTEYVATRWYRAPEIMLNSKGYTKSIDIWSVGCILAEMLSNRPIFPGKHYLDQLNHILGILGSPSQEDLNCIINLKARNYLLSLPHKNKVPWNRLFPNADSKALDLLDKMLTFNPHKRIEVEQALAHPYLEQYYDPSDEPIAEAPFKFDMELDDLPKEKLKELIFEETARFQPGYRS
smiles,measurement,setting,value
"Cc1cnc(NC2CCOCC2)nc1-n1cnc(C(=O)N[C@H](CN)c2cccc(Cl)c2)c1 [Compound #298, (S)—N-(2-Amino-1-(3-chlorophenyl)ethyl)-1-(5-methyl-2-((tetrahydro-2H-pyran-4-yl)amino)pyrimidin-4-yl)-1H-imidazole-4-carboxamide hydrochloride salt]",IC50,ERK1,< 50 nM
same,IC50,ERK2,≤ 50 nM
"Cc1cnc(N[C@H]2CCOC2)nc1-n1cnc(C(=O)NCc2cccc(Cl)c2)c1 [Example 318, (S)-N-(3-chlorobenzyl)-1-(5-methyl-2-((tetrahydrofuran-3-yl)amino)pyrimidin-4-yl)-1H-imidazole-4-carboxamide]",IC50,[1],500 to 2500 nM
same,IC50,[2],500 to 2500 nM
same,IC50,[3],> 2500 nM
"Cc1cnc(NC2CCOCC2)nc1-n1cnc(C(=O)N[C@H](CN(C)C)c2cccc(Cl)c2)c1 [Example 320, (S)-N-(1-(3-chlorophenyl)-2-(dimethylamino)ethyl)-1-(5-methyl-2-((tetrahydro-2H-pyran-4-yl)amino)pyrimidin-4-yl)-1H-imidazole-4-carboxamide]",IC50,[1],250 to 500 nM
same,IC50,[2],250 to 500 nM
same,IC50,[3],500 to 2500 nM
"CNC[C@@H](NC(=O)c1cn(-c2nc(NC3CCOCC3)ncc2C)cn1)c1cccc(Cl)c1 [Example 326, (S)-N-(1-(3-chlorophenyl)-2-(methylamino)ethyl)-1-(5-methyl-2-((tetrahydro-2H-pyran-4-yl)amino)pyrimidin-4-yl)-1H-imidazole-4-carboxamide]",IC50,[1],≤ 100 nM
same,IC50,[2],≤ 100 nM
same,IC50,[3],≤ 100 nM
"Cc1cnc(NC2CCOCC2)nc1-n1cnc(C(=O)NCc2nc(Cl)sc2C)c1 [Example 328, N-((2-chloro-5-methylthiazol-4-yl)methyl)-1-(5-methyl-2-((tetrahydro-2H-pyran-4-yl)amino)pyrimidin-4-yl)-1H-imidazole-4-carboxamide]",IC50,[1],250 to 500 nM
same,IC50,[2],250 to 500 nM
same,IC50,[3],> 2500 nM
"Cc1cnc(Nc2ccc(F)cc2Cl)nc1-n1cnc(C(=O)NCc2cccc(Cl)c2CO)c1 [Example 329, N-(3-chloro-2-(hydroxymethyl)benzyl)-1-(2-((2-chloro-4-fluorophenyl)amino)-5-methylpyrimidin-4-yl)-1H-imidazole-4-carboxamide]",IC50,[1],≤ 100 nM
same,IC50,[2],≤ 100 nM
same,IC50,[3],250 to 500 nM
"Cc1cnc(NC2CCOCC2)nc1-n1cnc(C(=O)NCc2ccc(Cl)c(CO)c2)c1 [Example 330, N-(4-chloro-3-(hydroxymethyl)benzyl)-1-(5-methyl-2-((tetrahydro-2H-pyran-4-yl)amino)pyrimidin-4-yl)-1H-imidazole-4-carboxamide]",IC50,[1],250 to 500 nM
same,IC50,[2],500 to 2500 nM
same,IC50,[3],> 2500 nM
"Cc1cnc(N[C@H]2CCOC2)nc1-n1cnc(C(=O)NCc2cccc(Cl)c2C)c1 [Example 331, (S)-N-(3-chloro-2-methylbenzyl)-1-(5-methyl-2-((tetrahydrofuran-3-yl)amino)pyrimidin-4-yl)-1H-imidazole-4-carboxamide]",IC50,[1],≤ 100 nM
same,IC50,[2],500 to 2500 nM
same,IC50,[3],500 to 2500 nM
"Cc1cnc(Nc2ccc3c(c2)OC(F)(F)O3)nc1-n1cnc(C(=O)NCc2cccc(Cl)c2CO)c1 [Example 332, N-(3-chloro-2-(hydroxymethyl)benzyl)-1-(2-((2,2-difluorobenzo[d][1,3]dioxol-5-yl)amino)-5-methylpyrimidin-4-yl)-1H-imidazole-4-carboxamide]",IC50,[1],≤ 100 nM
same,IC50,[2],500 to 2500 nM
same,IC50,[3],250 to 500 nM
"Cc1cnc(NC2CCOCC2)nc1-n1cnc(C(=O)N[C@H](CNCCO)c2cccc(Cl)c2)c1 [Example 333, (S)-N-(1-(3-chlorophenyl)-2-((2-hydroxyethyl)amino)ethyl)-1-(5-methyl-2-((tetrahydro-2H-pyran-4-yl)amino)pyrimidin-4-yl)-1H-imidazole-4-carboxamide]",IC50,[1],≤ 100 nM
same,IC50,[2],≤ 100 nM
same,IC50,[3],≤ 100 nM
"Cc1cnc(NC2CCOCC2)nc1-n1cnc(C(=O)NCc2cccc(Cl)c2CCO)c1 [Example 334, N-(3-chloro-2-hydroxyethylbenzyl)-1-(5-methyl-2-((tetrahydro-2H-pyran-4-yl)amino)pyrimidin-4-yl)-1H-imidazole-4-carboxamide]",IC50,[1],≤ 100 nM
same,IC50,[2],≤ 100 nM
same,IC50,[3],≤ 100 nM
"Cc1cnc(NC2CCOCC2)nc1-n1cnc(C(=O)NCc2cccc(CO)c2Cl)c1 [Example 335, N-(2-chloro-3-(hydroxymethyl)benzyl)-1-(5-methyl-2-((tetrahydro-2H-pyran-4-yl)amino)pyrimidin-4-yl)-1H-imidazole-4-carboxamide]",IC50,[1],100 to 250 nM
same,IC50,[2],250 to 500 nM
same,IC50,[3],> 2500 nM
"CC[C@H](CO)Nc1ncc(C)c(-n2cnc(C(=O)NCc3cccc(Cl)c3CO)c2)n1 [Example 336, (R)-N-(3-chloro-2-(hydroxymethyl)benzyl)-1-(2-((1-hydroxybutan-2-yl)amino)-5-methylpyrimidin-4-yl)-1H-imidazole-4-carboxamide]",IC50,[1],≤ 100 nM
same,IC50,[2],≤ 100 nM
same,IC50,[3],100 to 250 nM
"Cc1cnc(NC2CCOCC2)nc1-n1cnc(C(=O)N[C@H](CNCC(C)(C)C)c2cccc(Cl)c2)c1 [Example 337, (S)-N-(1-(3-chlorophenyl)-2-(neopentylamino)ethyl)-1-(5-methyl-2-((tetrahydro-2H-pyran-4-yl)amino)pyrimidin-4-yl)-1H-imidazole-4-carboxamide]",IC50,[1],100 to 250 nM
same,IC50,[2],100 to 250 nM
same,IC50,[3],500 to 2500 nM
"Cc1cnc(N[C@H]2CCOC2)nc1-n1cnc(C(=O)NCc2cccc(CO)c2Cl)c1 [Example 338, (S)-N-(2-chloro-3-(hydroxymethyl)benzyl)-1-(5-methyl-2-((tetrahydrofuran-3-yl)amino)pyrimidin-4-yl)-1H-imidazole-4-carboxamide]",IC50,[1],500 to 2500 nM
same,IC50,[2],> 2500 nM
same,IC50,[3],500 to 2500 nM
"Cc1cnc(NC2CCOCC2)nc1-n1cnc(C(=O)N[C@H](CNCC2CC2)c2cccc(Cl)c2)c1 [Example 339, 1-[5-Methyl-2-(tetrahydro-pyran-4-ylamino)-pyrimidin-4-yl]-1H-imidazole-4-carboxylic acid [(S)-1-(3-chloro-phenyl)-2-(cyclopropylmethyl-amino)-ethyl]-amide]",IC50,[1],≤ 100 nM
same,IC50,[2],≤ 100 nM
same,IC50,[3],≤ 100 nM
"CC(=O)OCc1c(Cl)cccc1CNC(=O)c1cn(-c2nc(NC3CCOCC3)ncc2C)cn1 [Example 340, 2-chloro-6-((1-(5-methyl-2-((tetrahydro-2H-pyran-4-yl)amino)pyrimidin-4-yl)-1H-imidazole-4-carboxamido)methyl)benzyl acetate]",IC50,[1],≤ 100 nM
same,IC50,[2],≤ 100 nM
same,IC50,[3],≤ 100 nM
"Cc1cnc(NC2CCOCC2)nc1-n1cnc(C(=O)NC(C)(C)c2cccc(Cl)c2CO)c1 [Example 341, N-(2-(3-chloro-2-(hydroxymethyl)phenyl)propan-2-yl)-1-(5-methyl-2-((tetrahydro-2H-pyran-4-yl)amino)pyrimidin-4-yl)-1H-imidazole-4-]",IC50,[1],250 to 500 nM
same,IC50,[2],500 to 2500 nM
same,IC50,[3],500 to 2500 nM
"CC(=O)OCc1c(Cl)cccc1CNC(=O)c1cn(-c2nc(N[C@H]3CCOC3)ncc2C)cn1 [Example 342, (S)-2-chloro-6-((1-(5-methyl-2-((tetrahydrofuran-3-yl)amino)pyrimidin-4-yl)-1H-imidazole-4-carboxamido)-methyl)benzyl acetate]",IC50,[1],100 to 250 nM
same,IC50,[2],≤ 100 nM
same,IC50,[3],≤ 100 nM
"Cc1cnc(NC2CCOCC2)nc1-n1cnc(C(=O)NCc2ccc(Cl)cc2CO)c1 [Example 343, N-(4-chloro-2-hydroxymethylbenzyl)-1-(5-methyl-2-((tetrahydro-2H-pyran-4-yl)amino)-pyrimidin-4-yl)-1H-imidazole-4-carboxamide]",IC50,[1],100 to 250 nM
same,IC50,[2],250 to 500 nM
same,IC50,[3],250 to 500 nM
CNCCNC[C@@H](NC(=O)c1cn(-c2nc(NC3CCOCC3)ncc2C)cn1)c1cccc(Cl)c1 [Example 345],IC50,[1],> 2500 nM
same,IC50,[2],500 to 2500 nM
same,IC50,[3],500 to 2500 nM
